The values that follow come from article PMC8769072, “Proteome‐scale mapping of binding sites in the unstructured regions of the human proteome” (Molecular Systems Biology, 2022).

This assay has as its system immobilized GST-tagged bait protein domains. Description: ProP-PD phage selections (HD2 P8, sublibraries, HD2 P3, HD1 P8) with NGS and confidence level. Format: binding, human. As to conditions: for HD confidence / HD mean counts / HD count proportions: HD1 P8 library; for HD mean counts: mean NGS counts over replicate selections; for HD count proportions: mean proportion of NGS counts; for HD2-1mM_CaCl confidence: HD2 library selection with 1mM_CaCl.

Setting [1] is: bait MAP1LC3A_ATG8 (Q9H492 2-121), HD2 library, benchmark motif instance recovered in the ProP-PD selection (TRUE/FALSE).
Where [2] appears, read: bait CALM1_EF-hand__P0DP23_2_149, library HD2, benchmarking set of validated motif instances, TRUE = motif instance recovered in the ProP-PD selection.
[3] abbreviates: HD2 library, bait CALM1_EF-hand__P0DP23_2_149, benchmark motif instance, in_library_check FALSE, in_library_coverage 0.
The mark [4] stands for this setting: bait PABP-B_PABP__P11940_544_623, HD2 library, whether the validated benchmark motif instance was recovered in the ProP-PD selection (TRUE/FALSE).
[5] abbreviates: HD2 library, bait TNKS_TANK-peptide-bind__O95271_174_649, known motif instance of the benchmarking set found (TRUE) or not found (FALSE) among selected peptides.
[6] abbreviates: bait PABP-B_PABP__P11940_544_623, HD2 library, confidence level (1-4) of best matching selected peptide.
Where [7] appears, read: bait PABP-B_PABP__P11940_544_623, HD2 library, specificity score of best matching selected peptide.
Setting [8] is: library HD2, bait EPS15_EH__P42566_121_215, whether the validated benchmark motif instance was recovered in the ProP-PD selection (TRUE/FALSE).
Setting [9] is: bait CRK_SH3_1_P46108_124_198, library HD2, benchmarking set of validated motif instances, TRUE = motif instance recovered in the ProP-PD selection.
Setting [10] is: bait AP2B1_adaptin__P63010_700_937.
[11] abbreviates: HD2 library, bait TLN1_PTB__Q9Y490_309_401, known motif instance of the benchmarking set found (TRUE) or not found (FALSE) among selected peptides.
Setting [12] is: bait MAP1LC3B_ATG8 (Q9GZQ8 2-119), HD2 library, benchmark motif instance recovered in the ProP-PD selection (TRUE/FALSE).
[13] abbreviates: bait CALM1 EF-hand (P0DP23, 2-149), confidence level (4 = High, 2 or 3 = Medium, 1 = Low).
The mark [14] stands for this setting: bait CALM1 EF-hand (P0DP23, 2-149), HD2 library selection, confidence level (4 = High, 2 or 3 = Medium, 1 = Low).
Where [15] appears, read: bait ANKRA2_Ank__Q9H9E1_142_313.
[16] abbreviates: HD2 library, bait SUMO1_SUMO__P63165_1_101, known motif instance of the benchmarking set found (TRUE) or not found (FALSE) among selected peptides.

Take RLRHALWPSLPDLHRVLGQYLRDT: the motif_found entry (library HD2, bait ANKRA2_Ank__Q9H9E1_142_313, motif instance NOT in library (in_library_check FALSE, in_library_coverage 0)) is recorded as “FALSE”.

For the substance RMATAEDLPLPPPPALEDL, the motif_found result (library HD2, bait VASP_EVH1__P50552_1_114, validated benchmark motif instance, in_library_check TRUE, TRUE/FALSE = instance recovered in ProP-PD selection) is “FALSE”.

With RMSQIKRLLSE, the motif_found entry (bait PTK2_Focal-AT__Q05397_891_1050, HD2 library, whether the validated benchmark motif instance was recovered in the ProP-PD selection (TRUE/FALSE)) is listed as “FALSE”.

As for RPPDDAVFDIITDEELCQIQ, the motif_found result under setting [1] is “FALSE”.

As for RRKWQKTGNAVRAIGRLSSM [MYLK], the motif_found result under setting [2] was “FALSE”.

For the substance RRMPAANLIQAAWRLYSTD [KCNQ4 338-356], under setting [3], the motif_found result is given as “FALSE”.

On to “RRRFLHLKKAAIVFQKQLRGQIARRVYRQLLAEK [MYO10 789-808]”, for which the motif_found result under setting [3] is “FALSE”.

Turning to RRRWKLSFSIVSLCNHLTR [DAPK2], the motif_found result under setting [2] was “FALSE”.

On to RSEIGHSPPPAYTPMS, for which, under “bait NEDD4_WW_4 (P46934 890-928), HD2 library, benchmark motif instance recovered in the ProP-PD selection (TRUE/FALSE)”, the motif_found result was “TRUE”. For the same substance, the best_confidence (bait NEDD4_WW_4 (P46934 890-928), HD2 library, confidence level (1-4) of best matching peptide) was found to be 2. The best_specificity (bait NEDD4_WW_4 (P46934 890-928), HD2 library, specificity score of best matching peptide) came out at 1.

As to RVTENNLQTPNPTASEFIPKGGSTSRL, the motif_found entry under setting [4] is given as “FALSE”.

Consider SAEPRPRTRSNPEGAEDRAVGA, for which the motif_found entry under setting [5] is “FALSE”.

For the substance SALSPNAKEFIFPNMQ, the best_confidence under setting [6] is recorded as 3. Moreover, the best_specificity under setting [7] is reported as 1. In addition, the motif_found result under setting [4] is recorded as “TRUE”.

On to SARILKEYNPFEEEDEEEE, for which the motif_found entry under setting [8] is “FALSE”.

On to SASYPPYQATGPPNTSYMPGMPGGI [TSG101], for which the motif_found result (bait CEP55_EABR__Q53EZ4_160_217, library HD2, benchmarking set of validated motif instances, TRUE = motif instance recovered in the ProP-PD selection) is recorded as “FALSE”.

In the case of SDLFPAPPQIPSRPVRIPPG [DNM2], the motif_found entry under setting [9] is on record as “FALSE”.

SDRTAAPGNPFRAKSEESE: the motif_found result under setting [8] is given as “FALSE”.

In the case of SEEGDNESRSAGDGTDWEKEDQ, the motif_found entry under setting [5] is recorded as “FALSE”.

SETMSMPQLTVPASGS registered an HD2 confidence (bait ANKRA2_Ank__Q9H9E1_142_313, library HD2 P8) of 4.

For the substance SFGGGFADF [EPS15], the motif_found result (bait AP2B1_adaptin__P63010_700_937, library HD2, benchmarking set of validated motif instances, TRUE = motif instance recovered in the ProP-PD selection) is listed as “TRUE”.

Consider “SFLSRRAARTIQTAFRQYRMNKNFERLRSSA [IQSEC2]”, for which the motif_found entry under setting [2] is reported as “FALSE”.

Turning to SFNPDAQVFVPIGSQD, the best_confidence under setting [6] is given as 3. For the same substance, the best_specificity under setting [7] stood at 1. For the same substance, the motif_found result under setting [4] is “TRUE”.

Consider SGETQTTSPAIPWAAF, for which the HD confidence (bait AP2B1_adaptin__P63010_700_937, confidence level (4 = High, 2-3 = Medium, 1 = Low)) came to 4. Under setting [10], the HD mean counts came to 10.25 and the HD count proportions was 0.003472.

Take SGGSDEAPPKPSRPGYPSPR [PTK2]: under setting [9], the motif_found entry is listed as “FALSE”.

In the case of SHLGTYGVFTNAAFDPSP----, the motif_found result under setting [11] is “FALSE”.

With SIDAHTFDFETIPHPNIEQ, the motif_found result under setting [1] is recorded as “FALSE” and the motif_found entry under setting [12] is reported as “FALSE”.

For SILEQTDMEAVEALVCMSSWGQRS, the motif_found result (bait SIN3A_PAH__Q96ST3_295_383, HD2 library, whether the validated benchmark motif instance was recovered in the ProP-PD selection (TRUE/FALSE)) is “FALSE”.

For SKSSNASWPPEFQPGVPWKGIQNIDPES, under setting [4], the motif_found entry is listed as “FALSE”.

Take SKYITTIAGVMTLS: under “library HD2, bait CALM1_EF-hand__P0DP23_2_149, motif instance NOT in library (in_library_check FALSE, in_library_coverage 0)”, the motif_found result was “FALSE”.

Take “SLEQSERRRRLLELQKSKRLDYVNHARRLA,ERRRRLLELQKSKRLDYVNHARR,PRLSQYKSKYSSLEQSERRRRLLELQKSKRLDYVNHARR,EQSERRRRLLELQKSKRLDYVNHARR (UniProt O95149 42-64, looked up, fragment) [SNUPN 42-64]”: under “HD2 library, bait KPNB1_Heat_1_Q14974_1_485, benchmark motif instance, in_library_check FALSE, in_library_coverage 0”, the motif_found result was “FALSE”.

For the substance SLMTDEPGLDNPAYVSSAEDGQ, under setting [11], the motif_found entry was “FALSE”.

Under setting [13], SLWTALSNFSMPSFPG returned an HD2-1mM_CaCl confidence of 4. For the same substance, the HD2 confidence under setting [14] was found to be 4.

For the substance SNGSSINWPPEFHPGVPWKGLQNIDPEN, under setting [4], the motif_found result is listed as “FALSE”.

Regarding SNPFMTGAPTGQFPTG, where the note is “library HD2, bait EPS15_EH__P42566_121_215, best matching peptide”, the best_specificity is listed as 1. This substance also gave a best_confidence (library HD2, bait EPS15_EH__P42566_121_215, confidence level of best matching peptide (4 High, 2-3 Medium, 1 Low)) of 3. In addition, the motif_found entry under setting [8] is on record as “TRUE”.

Where the note is “bait OXSR1___O95747_434_527, HD2 P8 cytoplasm sublibrary, confidence level (4 = High, 2-3 = Medium, 1 = Low)”, SNTNRFQVSVINENHE registered an HD2_cytoplasm confidence of 4.

Consider SPALTAPPPAYATLGPRP, for which the motif_found entry by setting is: (bait NEDD4_WW_4_P46934_890_928, HD2 library, whether the validated benchmark motif instance was recovered in the ProP-PD selection (TRUE/FALSE)) “FALSE”; (library HD2, bait YAP1_WW_1_P46937_169_207, validated benchmark motif instance, in_library_check TRUE, TRUE/FALSE = instance recovered in ProP-PD selection) “FALSE”.

Turning to SPANSFHFKEAWKHAIQKAKHMPDPWA [EEF2K], the motif_found entry under setting [2] is listed as “FALSE”.

SPFLPDLNFFAADSCL returned an HD2 confidence (bait ANKRA2_Ank__Q9H9E1_142_313, HD2 P8 selection, confidence level -4 to 4: 4 = High, 3 or 2 = Medium, 1 = Low, 0 = Filtered/Noise) of 2.

As for SPSLPNITLGLPATGP, the HD confidence (bait ANKRA2_Ank__Q9H9E1_142_313, confidence level (4 = High, 2-3 = Medium, 1 = Low)) was found to be 4. Also, under setting [15], the HD mean counts amounted to 701.75 and the HD count proportions was 0.06192.

As to SQKGNISETIVIDDEEDIETNGGA, the motif_found result under setting [16] is reported as “FALSE”.

Take SQPAGISTNPFMTGPSSSP: the motif_found result under setting [8] was “FALSE”.

Take SQPVMRPPNPFGPVSGAQI: the motif_found result under setting [8] is on record as “FALSE”.

In the case of SQRIQTNNNPFQVPIEEQR [RELA 138-142], under “HD2 library, bait EPS15_EH__P42566_121_215, benchmark motif instance, in_library_check FALSE, in_library_coverage 0”, the motif_found entry is given as “FALSE”.

SQSSASSEDYIIILPECFDT: the motif_found entry runs as follows: under setting [1], “FALSE”; under setting [12], “FALSE”.

SRHAQEPPAKRRKGSKGPEG-: the motif_found result (bait KPNA4_Arm (O00629 68-487), HD2 library, benchmark motif instance recovered in the ProP-PD selection (TRUE/FALSE)) was “FALSE”.

On to SRWEVIANYMNIHSSS, for which the HD2-1mM_CaCl confidence under setting [13] is listed as 3. The substance further returned an HD2 confidence under setting [14] of 3.

For the substance SSDGTCVAARTRPVLSCKKRR, the motif_found result (library HD2, bait WDR5_WD_1234567_P61964_21_334, validated benchmark motif instance, in_library_check TRUE, TRUE/FALSE = instance recovered in ProP-PD selection) is on record as “FALSE”.

On to SSGSSEDSFVEIRMAEGEA, for which the motif_found result under setting [1] is “FALSE” and the motif_found entry under setting [12] was “FALSE”.

SSHRKTKKPLPPTPEEDQILK: under “library HD2, bait YES1_SH3__P07947_90_152, validated benchmark motif instance, in_library_check TRUE, TRUE/FALSE = instance recovered in ProP-PD selection”, the motif_found result was “FALSE”.

In the case of SSKPNQKKLIVLSDSEVIQLSDG, the motif_found result under setting [16] is given as “FALSE”.

Consider SSLEEPHSPETGEKVVAGEV, for which, where the note is “library HD2, bait Keap1_KELCH__Q14145_321_609, whether the validated benchmark motif instance was recovered in the ProP-PD selection (TRUE/FALSE)”, the motif_found entry was “FALSE”.

For the substance SSNPPTSVPTAPALSSVIAP, the motif_found entry (HD2 library, bait TSG101_UEV__Q99816_1_145, known motif instance of the benchmarking set found (TRUE) or not found (FALSE) among selected peptides) is recorded as “FALSE”.

Consider SSSSASGSYGHLSASAISPALS, for which the motif_found entry (bait SUFU_SUFU__Q9UMX1_1_484, HD2 library, whether the validated benchmark motif instance was recovered in the ProP-PD selection (TRUE/FALSE)) is listed as “FALSE”.

Take STAQEQDDVLIVDSDEEDSSNNADV: under setting [16], the motif_found entry was “FALSE”.

For STASKGRYIPPHLRNREATKG, the motif_found result (library HD2, bait EIF4E_eIF4E__P06730_1_217, whether the validated benchmark motif instance was recovered in the ProP-PD selection (TRUE/FALSE)) was “FALSE”.
